# Results from patent publication US20070043036A1, “2-Pyridone derivatives as neutrophil elastase inhibitors and their use” (priority 2003, published 2007).
# Target: T1, Human Neutrophil Elastase (HNE) (Homo sapiens, UniProt P08246)
# T1 construct: Human Neutrophil Elastase (HNE) purified from serum; purchased Calbiochem 324681; host or cells: natural source; printed as 'purified from serum'
# T1 sequence (P08246 30-247 limits assumed): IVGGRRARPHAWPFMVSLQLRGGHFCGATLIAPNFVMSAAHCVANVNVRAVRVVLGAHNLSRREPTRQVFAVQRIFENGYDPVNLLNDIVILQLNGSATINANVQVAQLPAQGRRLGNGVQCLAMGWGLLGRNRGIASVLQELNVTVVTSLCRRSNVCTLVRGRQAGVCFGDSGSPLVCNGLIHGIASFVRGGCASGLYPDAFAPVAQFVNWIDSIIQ
# Assay: Human Neutrophil Elastase Quenched-FRET Assay
# Format: biochemical
# Settings: HNE purified from serum; substrate MeOSuc-AAPV-AMC; 15 min pre-incubation, 30 min incubation at room temperature; read-out: Inhibition of Human Neutrophil Elastase IC50
# Protocol: Human Neutrophil Elastase Quenched-FRET Assay
# The assay uses Human Neutrophil Elastase (HNE) purified from serum (Calbiochem art. 324681; Ref. Baugh, R. J. et al., 1976, Biochemistry. 15, 836-841). HNE was stored in as 50 mM NaOAc, 200 mM NaCl, pH 5.5 with added 30% glycerol at −20° C. The protease substrate used was Elastase Substrate V Fluorogenic, MeOSuc-AAPV-AMC (Calbiochem art. 324740; Ref. Castillo, M. J. et al., 1979, Anal. Biochem. 99, 53-64). The substrate was stored in DMSO at −20° C. The assay additions were as follows: Test compounds and controls were added to black 96-well flat-bottom plates (Greiner 655076), 1 μL in 100% DMSO, followed by 30 μL HNE in assay buffer with 0.01% TritonX-100. The assay buffer constitution was: 100 mM Tris (pH 7.5) and 500 mM NaCl. The enzyme and the compounds were incubated at room temperature for 15 minutes. Then 30 μl substrate in assay buffer was added. The assay was stopped after 30 minutes incubation at room temperature by adding 60 μl stop solution (140 mM acetic acid, 200 mM sodium monochloroacetate, 60 mM sodium acetate, pH 4.3). Fluorescence was measured on a Wallac 1420 Victor 2 instrument at settings: Excitation 380 nm, Emission 460 nm. IC50 values were determined using Xlfit curve fitting using model 205.
row,SMILES,IC50 [nM]
1,"Cc1c(CCc2cccnc2)cc(C(=O)NCc2ccc(S(C)(=O)=O)cc2)c(=O)n1-c1cccc(C(F)(F)F)c1 [Example 8, 6-Methyl-N-[4-(methylsulfonyl)benzyl]-2-oxo-5-(2-pyridin-3-ylethyl)-1-[3-(trifluoromethyl)phenyl]-1,2-dihydropyridine-3-carboxamide]",83
2,"Cc1c(OCCO)cc(C(=O)NCc2ccc(S(C)(=O)=O)cc2)c(=O)n1-c1cccc(C(F)(F)F)c1 [Example 66, 5-(2-Hydroxyethoxy)-6-methyl-N-[4-(methylsulfonyl)benzyl]-2-oxo-1-[3-(trifluoromethyl)phenyl]-1,2-dihydropyridine-3-carboxamide]",22
3,"CCCN(C)C(=O)c1cc(C(=O)NCc2ccc(S(C)(=O)=O)cc2)c(=O)n(-c2cccc(C(F)(F)F)c2)c1C [Example 16, 6-Methyl-2-oxo-1-(3-trifluoromethyl-phenyl)-1,2-dihydro-pyridine-3,5-dicarboxylic acid 3-(4-methanesulfonyl-benzylamide)5-(methyl-propyl-amide)]",48

# Further molecules by falling IC50, results first:
row,IC50 [nM],SMILES
1,99,"Cc1c(C(=O)N2CCC[C@@H]2CO)cc(C(=O)NCc2ccc(S(C)(=O)=O)cc2)c(=O)n1-c1cccc(C(F)(F)F)c1 [Example 19, 5-((2R)-2-Hydroxymethyl-pyrrolidine-1-carbonyl)-6-methyl-2-oxo-1-(3-trifluoromethyl-phenyl)-1,2-dihydro-pyridine-3-carboxylic acid 3-(4-methanesulfonyl-benzylamide)]"
2,51,"Cc1c(CNCC2CC2)cc(C(=O)NCc2ccc(S(C)(=O)=O)cc2)c(=O)n1-c1cccc(C(F)(F)F)c1 [Example 58, 5-{[(Cyclopropylmethyl)amino]methyl}-6-methyl-N-[4-(methylsulfonyl)benzyl]-2-oxo-1-[3-(trifluoromethyl)phenyl]-1,2-dihydropyridine-3-carboxamide]"
